Test system: bacterial species tested
Test: TMP-mediated delivery of EGS, overall statement for the bacterial species tested
Type: cell-based
Settings: E. coli, P. aeruginosa, S. aureus, B. subtilis (FIG. 2)
Text: The results in Example 1 indicate enhanced delivery of a nucleic acid to the Gram negative organism E. coli. […] Staphylococcus aureus (Gram positive), Pseudomonas aeruginosa (Gram negative) and Bacillus subtilis (Gram positive) were obtained from the ATCC and grown overnight. The bacteria were washed with TB and resuspended to give an OD of 1.0. TMP/EGS complexes were set up as in Example 1 and delivered to the cells.
The cells were washed three times with TB and then treated with lysozyme solutions with EDTA (for Gram negative) or without EDTA (for Gram positive) according to the protocol of Merchant et al., J. Photochem. Photobiol. B: Biol. 32:153-157 (1996). The amount of EGS present in the cell pellet and the cell wall fraction was calculated following scintillation counting.

SMILES: C[n+]1ccc(-c2c3nc(c(-c4cc[n+](C)cc4)c4ccc([nH]4)c(-c4cc[n+](C)cc4)c4nc(c(-c5cc[n+](C)cc5)c5ccc2[nH]5)C=C4)C=C3)cc1 [TMP, tetra meso (n-methyl 4-pyridyl)porphine]
- ability of TMP to deliver EGS: able to deliver EGS to the bacterial species tested
